Converted amounts (≈) assume the structure as drawn.
Experiments:
[1] = test system: T1, E. faecalis; assay: microbe, parasite or virus in culture; design: Microbial growth in liquid dilution assay, OD600 relative to DMSO control; conditions: Enterococcus faecalis; estimated IC50; read-out: E. faecalis, IC50 (µM) estimate
T1 construct: DSM 20478
Text: (§1) Compound effects on commensal microbes in dilution assay As our objective was to discover compounds that inhibit Chlamydia selectively but spare commensal bacteria, we further tested 15 of our top compounds (c1e–c10e and c1v–c5v) against five bacterial species, Escherichia coli, Lactobacillus reuteri, Enterococcus faecalis, Bacteroides thetaiotaomicron, and Bifidobacterium adolescentis, representing the four dominating phyla of the human gut microbiota. […] Exceptions were c3e and c5e, which at 30 µM were inhibitory to some species. […] Of note, c1e–c3e had little or no effect on the growth of an even larger set of species of gut bacteria, also including Blautia coccoides, Prevotella copri, Prevotella histicola, Bacteroides fragilis, and Dubosiella newyorkensis, when tested in radial diffusion assays, in which the bacteria were exposed to compounds for 24–48 h before measurements of growth inhibition zones (S10B Fig and S5G Data).

[2] = test system: T2, B. adolescentis; assay: microbe, parasite or virus in culture; design: Microbial growth in liquid dilution assay, OD600 relative to DMSO control; conditions: Bifidobacterium adolescentis; estimated IC50; read-out: B. adolescentis, IC50 (µM) estimate
T2 construct: DSM 20083
Text: as §1

[3] = test system: T3, E. coli; assay: microbe, parasite or virus in culture; design: Microbial growth in liquid dilution assay, OD600 relative to DMSO control; conditions: Escherichia coli; estimated IC50; read-out: E. coli, IC50 (µM) estimate
T3 construct: DSM 301
Text: as §1

[4] = test system: T4, B. thetaiotaomicron; assay: microbe, parasite or virus in culture; design: Microbial growth in liquid dilution assay, OD600 relative to DMSO control; conditions: Bacteroides thetaiotaomicron; estimated IC50; read-out: B. thetaiotaomicron, IC50 (µM) estimate
T4 construct: DSM 2079
Text: as §1

[5] = test system: T5, L. reuteri; assay: microbe, parasite or virus in culture; design: Microbial growth in liquid dilution assay, OD600 relative to DMSO control; conditions: Limosilactobacillus reuteri; estimated IC50; read-out: L. reuteri, IC50 (µM) estimate
T5 construct: DSM 20016
Text: as §1

[6] = test system: T6, CTL2-GFP (C. trachomatis L2/434/Bu, GFP-expressing); assay: microbe, parasite or virus in culture; design: species or system HeLa; Intracellular C. trachomatis growth in HeLa cells, bulk GFP fluorescence relative to DMSO; conditions: Chlamydia trachomatis, 28.5 h; bulk GFP
T6 construct: L2/434/Bu, GFP-expressing
Method: (§2) MICs were calculated as described above.

[7] = test system: T6, CTL2-GFP (C. trachomatis L2/434/Bu, GFP-expressing); assay: microbe, parasite or virus in culture; design: Intracellular C. trachomatis growth in HeLa cells, bulk GFP fluorescence relative to DMSO; conditions: Chlamydia trachomatis, HeLa, 28.5 h; bulk GFP
Method: as §2

[8] = test system: T6, CTL2-GFP (C. trachomatis L2/434/Bu, GFP-expressing); assay: microbe, parasite or virus in culture; design: C. trachomatis growth in HeLa, dose-response, mean of bulk GFP fluorescence and imaged total inclusion area; conditions: Chlamydia trachomatis, HeLa, 28.5 h; mean of GFP and inclusion area
Outline: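 Read-out combines bulk fluorescence and imaging: GFP tracks chlamydial growth, resorufin tracks host cell viability. Plates were then fixed and Hoechst-stained so inclusions and nuclei could be imaged and counted per well.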

[9] = test system: T6, CTL2-GFP (C. trachomatis L2/434/Bu, GFP-expressing); assay: microbe, parasite or virus in culture; design: species or system HeLa; C. trachomatis growth in HeLa, dose-response, mean of bulk GFP fluorescence and imaged total inclusion area; conditions: Chlamydia trachomatis, 28.5 h; mean of GFP and inclusion area
Text: We screened a library of 36,785 small molecules displaying drug-like properties and covering a wide chemical space (Fig 1A and S2A Data). In this process, we also complemented the assay described above with an imaging-based readout (Fig 1B). After measurements of bulk GFP and resorufin fluorescence, cells were fixed, stained with the DNA dye Hoechst, and imaged at a high-content imaging platform to detect chlamydial inclusions (GFP) and host cell nuclei (Hoechst). The total area and number of inclusions in individual wells and the number of nuclei then served as additional proxies for chlamydial growth and host cell viability. […] MICs were calculated as described above.

[10] = test system: T7, L. crispatus; assay: microbe, parasite or virus in culture; design: Microbial growth in liquid dilution assay, OD600 relative to DMSO control; conditions: Lactobacillus crispatus; estimated IC50; read-out: L. crispatus, IC50 (µM) estimate
T7 construct: DSM 20584

[11] = in vitro; design: Viability of infected HeLa host cells, resazurin conversion, bulk resorufin fluorescence relative to DMSO; conditions: human, hela cells; bulk resorufin, mean of 3
[12] = test system: T8, G. vaginalis; assay: microbe, parasite or virus in culture; design: Microbial growth in liquid dilution assay, OD600 relative to DMSO control; conditions: Gardnerella vaginalis, read-out: G. vaginalis, IC50 (µM) estimate
T8 construct: DSM 4944

[13] = test system: T9, L. iners; assay: organism not typed; design: Microbial growth in liquid dilution assay, OD600 relative to DMSO control; conditions: estimated IC50; read-out: L. iners, IC50 (µM) estimate
T9 construct: DSM 13335

[14] = test system: T10, C. albicans; assay: microbe, parasite or virus in culture; design: Microbial growth in liquid dilution assay, OD600 relative to DMSO control; conditions: Candida albicans, read-out: C. albicans, IC50 (µM) estimate
T10 construct: DSM 1577

| SMILES | IC50 [1] | IC50 [2] | IC50 [3] | IC50 [4] | IC50 [5] | IC50 [8] | MIC [9] | viability at 28.5 h, 0.000416667 µM [11] | viability at 28.5 h, 0.00125 µM [11] | viability at 28.5 h, 0.00375 µM [11] | viability at 28.5 h, 0.0123333 µM [11] | viability at 28.5 h, 0.037 µM [11] | viability at 28.5 h, 0.111 µM [11] | viability at 28.5 h, 0.333 µM [11] | viability at 28.5 h, 1 µM [11] | viability at 28.5 h, 3 µM [11] | viability at 28.5 h, 10 µM [11] | viability at 28.5 h, 30 µM [11] | also measured |
| --- | --- | --- | --- | --- | --- | --- | --- | --- | --- | --- | --- | --- | --- | --- | --- | --- | --- | --- | --- |
| Cc1cc(NS(=O)(=O)c2ccc(NC(=O)COc3ccc(Cl)c(C)c3)cc2)no1 [c3v] | > 30 µM | > 30 µM | > 30 µM | > 30 µM | > 30 µM |  |  |  |  |  |  |  |  |  |  |  |  |  | MIC [6]: 0.829 µM (≈ 0.361 µg/mL); IC50 [7]: 0.773 µM |
| O=C(CC1CCN(CCc2ccccc2)CC1)Nc1cccc(-n2cccn2)c1 [c4e] | > 30 µM | > 30 µM | > 30 µM | > 30 µM | > 30 µM | 0.332 µM | 1.56 µM (≈ 0.605 µg/mL) | 92.2% | 95.9% | 89.2% | 92.7% | 90.6% | 94.2% | 86.2% | 89.9% | 82.9% | 88.5% | 87.2% | IC50 [10]: > 30 µM; IC50 [12]: > 30 µM; IC50 [13]: > 30 µM; IC50 [14]: > 30 µM |
| Cc1ccc(C(=O)/C=C/Nc2ccc(S(=O)(=O)Nc3onc(C)c3C)cc2)cc1 [c4v] | > 30 µM | > 30 µM | > 30 µM | > 30 µM | > 30 µM |  |  |  |  |  |  |  |  |  |  |  |  |  | MIC [6]: 1.88 µM (≈ 0.775 µg/mL); IC50 [7]: 1.32 µM |
| COc1c(Br)cc2c(cc(C)n2-c2ccccc2)c1OCC(O)CNC(C)C (stereo not shown) [c5e] | > 30 µM | 10.3 µM | > 30 µM | > 30 µM | > 30 µM | 0.375 µM | 0.767 µM (≈ 0.343 µg/mL) | 87.7% | 89.3% | 86.3% | 90.9% | 88.9% | 91.6% | 87.6% | 92.4% | 89.5% | 97% | 0% |  |
| CCc1nnc(NS(=O)(=O)c2ccc(NC(=O)COc3ccc4ccccc4c3)cc2)s1 [c5v] | > 30 µM | > 30 µM | > 30 µM | > 30 µM | > 30 µM |  |  |  |  |  |  |  |  |  |  |  |  |  | MIC [6]: 2.24 µM (≈ 1.05 µg/mL); IC50 [7]: 1.43 µM |
| CNC(=S)N1CCN(c2nsc3ccccc23)CC1 [c6e] | > 30 µM | > 30 µM | > 30 µM | > 30 µM | > 30 µM | 0.413 µM | 0.771 µM (≈ 0.225 µg/mL) | 103% | 100% | 99.1% | 101% | 97.3% | 105% | 101% | 108% | 103% | 102% | 76% |  |
| N#Cc1c(Nc2cccc(C(F)(F)F)c2)sc(C(=O)c2ccc3c(c2)OCO3)c1N [c8e] | > 30 µM | > 30 µM | > 30 µM | > 30 µM | > 30 µM | 0.567 µM | 0.936 µM (≈ 0.404 µg/mL) | 88% | 94.7% | 88.4% | 85.7% | 86% | 87.3% | 85.7% | 94.3% | 81.6% | 77.1% | 62.5% |  |
| O=C(Nc1ccc(F)c(F)c1)NC1CCC2CN(CCOc3ccccc3)CC2C1 (stereo not shown) [c9e] | > 30 µM | > 30 µM | > 30 µM | > 30 µM | > 30 µM | 0.641 µM | 2.63 µM (≈ 1.09 µg/mL) | 90.2% | 92.6% | 90.8% | 91.5% | 89% | 92% | 91.6% | 94.6% | 92.9% | 95.3% | 102% |  |
| O=C(N/N=C/c1ccc(Sc2cccc3cccnc23)o1)c1cccc(F)c1 [c10e] | > 30 µM | > 30 µM | > 30 µM | > 30 µM | > 30 µM | 0.828 µM | 5.57 µM (≈ 2.18 µg/mL) | 84.5% | 93.8% | 84.5% | 91.6% | 82.9% | 92.9% | 88% | 94.1% | 89.3% | 89.9% | 81.1% |  |
| Oc1c(CN2CCN(c3ccc(F)cc3)CC2)cc(Br)c2cccnc12 [c43e] |  |  |  |  |  | 5.48 µM | 9.58 µM (≈ 3.99 µg/mL) | 97.2% | 91.7% | 92.6% | 88.5% | 91.8% | 86.8% | 90% | 86.1% | 88.5% | 84.3% | 85.2% |  |
| FC(F)(F)c1ccc(N2CCNCC2)nc1OCc1ccc2c(c1)OCCO2 [c46e] |  |  |  |  |  | 6.17 µM | 11.3 µM (≈ 4.47 µg/mL) | 85.8% | 88.5% | 88.8% | 94.6% | 90.4% | 93.4% | 88.9% | 91.1% | 94% | 97.2% | 11.7% |  |
| Cn1cc(C(c2ccc(OCC(=O)O)cc2)c2cn(C)c3ccccc23)c2ccccc21 [c48e] |  |  |  |  |  | 6.69 µM | 8.4 µM (≈ 3.56 µg/mL) | 87.9% | 89.6% | 87.2% | 88.7% | 88.5% | 89.5% | 89.6% | 93.9% | 93.8% | 97.6% | 87.9% |  |
